Measurements taken from ChEMBL document CHEMBL1130903, “Preparation of difluoro analogs of CCGs and their pharmacological evaluations” (Bioorg Med Chem Lett, 1998).

Assays:
[1] = biological target: T1, Glutamate NMDA receptor (Rattus norvegicus) (UniProt P35439+Q00959+Q00960+Q00961+Q62645+Q8VHN2+Q9R1M7); experiment: (§1) Relative activity in depolarization to its corresponding CCG(CCG=1) isomer; format: protein-complex assay
[2] = biological target: T1, Glutamate NMDA receptor (Rattus norvegicus); experiment: Depolarizing activity against NMDA receptor in isolated spinal cord of newborn rat.; format: protein-complex assay
[3] = biological target: Metabotropic glutamate receptor 1 (Rattus norvegicus) (UniProt P23385); experiment: as §1
Sequence of Metabotropic glutamate receptor 1 (Rattus norvegicus) (P23385 19-1199 limits assumed): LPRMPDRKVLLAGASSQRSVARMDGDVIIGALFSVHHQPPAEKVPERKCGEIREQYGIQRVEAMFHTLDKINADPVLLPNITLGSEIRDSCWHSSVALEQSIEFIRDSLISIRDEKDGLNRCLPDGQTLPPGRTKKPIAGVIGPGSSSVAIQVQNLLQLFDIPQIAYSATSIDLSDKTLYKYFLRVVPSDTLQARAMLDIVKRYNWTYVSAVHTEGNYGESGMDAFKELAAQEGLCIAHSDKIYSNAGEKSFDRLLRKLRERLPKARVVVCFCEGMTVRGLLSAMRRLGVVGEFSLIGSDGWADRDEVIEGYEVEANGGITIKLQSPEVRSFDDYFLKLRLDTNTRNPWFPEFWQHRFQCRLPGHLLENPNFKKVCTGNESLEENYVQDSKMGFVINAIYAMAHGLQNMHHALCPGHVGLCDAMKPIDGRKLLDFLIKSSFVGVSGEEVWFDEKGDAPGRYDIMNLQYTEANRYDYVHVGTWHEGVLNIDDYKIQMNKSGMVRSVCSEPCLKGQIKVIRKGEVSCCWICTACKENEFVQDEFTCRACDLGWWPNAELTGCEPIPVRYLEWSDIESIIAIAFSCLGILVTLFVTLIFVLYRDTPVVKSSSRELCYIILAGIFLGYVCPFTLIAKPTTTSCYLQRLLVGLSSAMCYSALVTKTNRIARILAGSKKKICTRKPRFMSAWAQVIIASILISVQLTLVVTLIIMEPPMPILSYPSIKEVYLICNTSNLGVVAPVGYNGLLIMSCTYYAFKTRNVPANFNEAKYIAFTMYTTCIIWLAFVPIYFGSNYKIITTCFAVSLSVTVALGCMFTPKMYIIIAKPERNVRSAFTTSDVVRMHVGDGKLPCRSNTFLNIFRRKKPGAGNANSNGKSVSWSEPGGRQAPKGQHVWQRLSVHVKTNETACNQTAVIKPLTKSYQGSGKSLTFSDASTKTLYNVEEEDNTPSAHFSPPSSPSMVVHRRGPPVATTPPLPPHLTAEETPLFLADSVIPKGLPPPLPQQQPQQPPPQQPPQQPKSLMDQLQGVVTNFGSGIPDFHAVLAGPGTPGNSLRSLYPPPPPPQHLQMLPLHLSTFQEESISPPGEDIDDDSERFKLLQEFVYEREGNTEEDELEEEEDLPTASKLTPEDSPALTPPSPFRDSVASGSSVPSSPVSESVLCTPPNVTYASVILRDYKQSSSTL

[4] = biological target: Metabotropic glutamate receptor 1 (Rattus norvegicus) (UniProt P23385); experiment: Depolarizing activity against mGluR-I receptor in isolated spinal cord of newborn rat.; format: tissue-based

| Ratio of depolarizing activity [1] | Threshold concentration [2] [µM] | Ratio of depolarizing activity [3] | Threshold concentration [4] [µM] | SMILES |
| --- | --- | --- | --- | --- |
| < 0.1 | 1000 | – | – | NC(C(=O)O)[C@@H]1[C@H](C(=O)O)C1(F)F (single isomer, unassigned) |
| 1.5 | 1 | – | – | N[C@H](C(=O)O)[C@H]1[C@@H](C(=O)O)C1(F)F |
| 1.2 | 30 | – | – | N[C@@H](C(=O)O)[C@H]1[C@H](C(=O)O)C1(F)F |
| 2 | 100 | – | – | N[C@H](C(=O)O)[C@@H]1[C@H](C(=O)O)C1(F)F |
| – | – | 3 | 2 | N[C@H](C(=O)O)[C@@H]1[C@@H](C(=O)O)C1(F)F |
| 0.1 | 10 | – | – | N[C@@H](C(=O)O)[C@@H]1[C@@H](C(=O)O)C1(F)F |
| < 0.01 | 1000 | – | – | NC(C(=O)O)[C@H]1[C@@H](C(=O)O)C1(F)F (single isomer, unassigned) |
| – | 300 | 0.5 | 300 | N[C@H](C(=O)O)[C@H]1[C@H](C(=O)O)C1(F)F |
